Reference: patent publication US12180187B2, “1-phenyl-5-azinylpyrazolyl-3-oxyalkyl acids and their use for controlling unwanted plant growth” (BAYER AKTIENGESELLSCHAFT, priority 2019, dated 2024)

Key:
POLCO [1] = assay: Post-emergence action at 320 g/ha against POLCO; assay type: in vivo, Fallopia convolvulus (Polygonum convolvulus); details: visual rating about 3 weeks after treatment vs untreated controls
Source text: (§1) Accordingly, the compounds of the invention have good herbicidal action against a broad spectrum of weed grasses and broad-leaved weeds and are therefore suitable for controlling unwanted vegetation by the post-emergence method. • b) Seeds of monocotyledonous and dicotyledonous weeds and crop plants are placed in sandy loam in plastic or organic planting pots, covered with soil and cultivated in a greenhouse under controlled growth conditions. 2 to 3 weeks after sowing, the test plants are treated at the one-leaf stage. The compounds of the invention, formulated in the form of wettable powders (WP) or as emulsion concentrates (EC), are then sprayed onto the green parts of the plants as aqueous suspension or emulsion with addition of 0.5% additive at a water application rate of 600 l/ha (converted). After the test plants have been kept in the greenhouse under optimum growth conditions for about 3 weeks, the activity of the preparations is rated visually in comparison to untreated controls. For example, 100% activity=the plants have died, 0% activity=like control plants. Tables 39 to 49 below show the effects of selected compounds of the general formula (I) according to Tables 1 and 2 on various harmful plants and at an application rate corresponding to 320 g/ha, which were obtained by the experimental procedure mentioned above.

AMARE [2] = assay: Post-emergence action against AMARE, 1.28 kg/ha; assay type: in vivo, Amaranthus retroflexus; details: dosage 1280 g/ha, visual rating about 3 weeks after treatment vs untreated controls (100% = plants died)
In short: (§2)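 Visual rating against untreated plants about 3 weeks after spraying gives % activity, where 0% means like controls and 100% means plants died. Plants were treated post-emergence at the one-leaf stage with compound formulated as wettable powder or emulsion concentrate, applied at 600 L water/ha plus 0.5% additive.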

ABUTH [3] = assay: Post-emergence action at 320 g/ha against ABUTH; assay type: in vivo, Abutilon theophrasti; details: visual rating about 3 weeks after treatment vs untreated controls
Source text: as §1

MATIN [4] = assay: Pre-emergence action at 320 g/ha against MATIN; assay type: in vivo, Tripleurospermum inodorum (Matricaria inodora); details: visual scoring after about 3 weeks vs untreated controls
In short: (§3)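 Weed and crop seeds sown in pots and covered with soil; WP or EC formulations sprayed pre-emergence onto the soil surface at 320 g/ha with 0.5% additive in 600 l/ha water. Kept in greenhouse; after about 3 weeks activity scored visually as % versus untreated controls (100% = plants dead, 0% = as control).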

VERPE [5] = assay: Pre-emergence action against VERPE, 1280 g/ha; assay type: in vivo, Veronica persica; details: scored visually after about 3 weeks vs untreated controls (100% = plants have died)
In short: (§4)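 In greenhouse pots of sandy loam, sown weed seeds were covered with soil and treated pre-emergence with the compound in water (600 L/ha, 0.5% additive). Efficacy was assessed visually as percent of untreated control after about 3 weeks.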

DIGSA [6] = assay: Post-emergence action at 320 g/ha against DIGSA; assay type: in vivo, Digitaria sanguinalis; details: dosage 320 g/ha, visual rating about 3 weeks after treatment vs untreated controls (100% = plants died)
Source text: as §1

MATIN [7] = assay: Pre-emergence action against MATIN, 1280 g/ha; assay type: in vivo, Tripleurospermum inodorum (Matricaria inodora); details: scored visually after about 3 weeks vs untreated controls (100% = plants have died)
In short: as §4

POAAN [8] = assay: Pre-emergence action against POAAN, 1280 g/ha; assay type: in vivo, Poa annua; details: visual scoring after about 3 weeks vs untreated controls, 100% = plants have died, 0% = like control plants
In short: as §4

DIGSA [9] = assay: Pre-emergence action against DIGSA, 1280 g/ha; assay type: in vivo, Digitaria sanguinalis; details: visual scoring after about 3 weeks vs untreated controls, 100% = plants have died, 0% = like control plants
In short: as §4

ECHCG [10] = assay: Post-emergence action against ECHCG, 1.28 kg/ha; assay type: in vivo, Echinochloa crus-galli; details: dosage 1280 g/ha, visual rating about 3 weeks after treatment vs untreated controls
In short: as §2

VERPE [11] = assay: Post-emergence action against VERPE, 1.28 kg/ha; assay type: in vivo, Veronica persica; details: dosage 1280 g/ha, visual rating about 3 weeks after treatment vs untreated controls (100% = plants died)
In short: as §2

AMARE [12] = assay: Pre-emergence action against AMARE, 1280 g/ha; assay type: in vivo, Amaranthus retroflexus; details: scored visually after about 3 weeks vs untreated controls (100% = plants have died)
In short: as §4

ECHCG [13] = assay: Pre-emergence action against ECHCG, 1280 g/ha; assay type: in vivo, Echinochloa crus-galli; details: visual scoring after about 3 weeks vs untreated controls, 100% = plants have died, 0% = like control plants
In short: as §4

POLCO [14] = assay: Pre-emergence action at 320 g/ha against POLCO; assay type: in vivo, Fallopia convolvulus (Polygonum convolvulus); details: visual scoring after about 3 weeks vs untreated controls
In short: as §3

DIGSA [15] = assay: Pre-emergence action at 320 g/ha against DIGSA; assay type: in vivo, Digitaria sanguinalis; details: visual scoring after about 3 weeks vs untreated controls
In short: as §3

VIOTR = assay: Pre-emergence action at 320 g/ha against VIOTR; assay type: in vivo, Viola tricolor; details: dosage 320 g/ha
In short: as §3

LOLRI = assay: Pre-emergence action against LOLRI, 1280 g/ha; assay type: in vivo, Lolium rigidum; details: visual scoring after about 3 weeks vs untreated controls, 100% = plants have died, 0% = like control plants
In short: as §4

POAAN [16] = assay: Post-emergence action against POAAN, 1.28 kg/ha; assay type: in vivo, Poa annua; details: dosage 1280 g/ha, visual rating about 3 weeks after treatment vs untreated controls
In short: as §2

STEME [17] = assay: Post-emergence action against STEME, 1.28 kg/ha; assay type: in vivo, Stellaria media; details: dosage 1280 g/ha, visual rating about 3 weeks after treatment vs untreated controls (100% = plants died)
In short: as §2

MATIN [18] = assay: Post-emergence action against MATIN, 1.28 kg/ha; assay type: in vivo, Tripleurospermum inodorum (Matricaria inodora); details: dosage 1280 g/ha, visual rating about 3 weeks after treatment vs untreated controls (100% = plants died)
In short: as §2

SETVI [19] = assay: Pre-emergence action against SETVI, 1280 g/ha; assay type: in vivo, Setaria viridis; details: visual scoring after about 3 weeks vs untreated controls, 100% = plants have died, 0% = like control plants
In short: as §4

DIGSA [20] = assay: Post-emergence action against DIGSA, 1.28 kg/ha; assay type: in vivo, Digitaria sanguinalis; details: dosage 1280 g/ha, visual rating about 3 weeks after treatment vs untreated controls
In short: as §2

SETVI [21] = assay: Post-emergence action against SETVI, 1.28 kg/ha; assay type: in vivo, Setaria viridis; details: dosage 1280 g/ha, visual rating about 3 weeks after treatment vs untreated controls
In short: as §2

VERPE [22] = assay: Pre-emergence action at 320 g/ha against VERPE; assay type: in vivo, Veronica persica; details: visual scoring after about 3 weeks vs untreated controls
In short: as §3

AMARE [23] = assay: Pre-emergence action at 320 g/ha against AMARE; assay type: in vivo, Amaranthus retroflexus; details: visual scoring after about 3 weeks vs untreated controls
In short: as §3

ALOMY [24] = assay: Post-emergence action against ALOMY, 320 g/ha; assay type: in vivo, Alopecurus myosuroides; details: dosage 320 g/ha, visual rating about 3 weeks after treatment vs untreated controls (100% = plants died)
In short: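 Herbicidal effect is scored by eye about 3 weeks after a foliar spray and expressed as percent activity, with untreated plants as 0% and dead plants as 100%. Treatment is applied at the one-leaf stage of greenhouse-grown, soil-sown plants, at a water rate of 600 l/ha containing 0.5% additive.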

SETVI [25] = assay: Post-emergence action at 320 g/ha against SETVI; assay type: in vivo, Setaria viridis; details: visual rating about 3 weeks after treatment vs untreated controls
Source text: as §1

ALOMY [26] = assay: Pre-emergence action against ALOMY, 1280 g/ha; assay type: in vivo, Alopecurus myosuroides; details: visual scoring after about 3 weeks vs untreated controls, 100% = plants have died, 0% = like control plants
In short: as §4

ABUTH [27] = assay: Pre-emergence action against ABUTH, 1280 g/ha; assay type: in vivo, Abutilon theophrasti; details: scored visually after about 3 weeks vs untreated controls (100% = plants have died)
In short: as §4

STEME [28] = assay: Pre-emergence action against STEME, 1280 g/ha; assay type: in vivo, Stellaria media; details: scored visually after about 3 weeks vs untreated controls (100% = plants have died)
In short: as §4

AVEFA [29] = assay: Pre-emergence action at 320 g/ha against AVEFA; assay type: in vivo; details: visual scoring after about 3 weeks vs untreated controls
In short: as §3

AVEFA [30] = assay: Post-emergence action at 320 g/ha against AVEFA; assay type: in vivo; details: visual rating about 3 weeks after treatment vs untreated controls
Source text: as §1

CCOC(=O)COc1nn(-c2ccccc2F)c(-c2cncnc2)c1Br [VI-001]
Post-emergence action against POLCO in % (POLCO [1]): 90%
Post-emergence action against AMARE (AMARE [2]): 90%
Post-emergence action against ABUTH in % (ABUTH [3]): 80%
Pre-emergence action against MATIN in % (MATIN [4]): 90%
Pre-emergence action against VERPE (VERPE [5]): 100%
Post-emergence action at 320 g/ha against DIGSA in % (DIGSA [6]): 90%
Pre-emergence action against MATIN (MATIN [7]): 100%
Pre-emergence action against POAAN (POAAN [8]): 100%
Pre-emergence action against DIGSA (DIGSA [9]): 90%
Post-emergence action against ECHCG (ECHCG [10]): 100%
Post-emergence action against VERPE (VERPE [11]): 100%
Pre-emergence action against AMARE (AMARE [12]): 100%
Pre-emergence action against ECHCG (ECHCG [13]): 100%
Pre-emergence action against POLCO in % (POLCO [14]): 100%
Pre-emergence action against DIGSA in % (DIGSA [15]): 100%
Pre-emergence action against VIOTR in % (VIOTR): 100%
Pre-emergence action against LOLRI (LOLRI): 100%
Post-emergence action against POAAN (POAAN [16]): 100%
Post-emergence action against STEME (STEME [17]): 100%
Post-emergence action against MATIN (MATIN [18]): 90%
Pre-emergence action against SETVI (SETVI [19]): 100%
Post-emergence action against DIGSA (DIGSA [20]): 100%
Post-emergence action against SETVI (SETVI [21]): 100%
Pre-emergence action against VERPE in % (VERPE [22]): 100%
Pre-emergence action against AMARE in % (AMARE [23]): 100%
Post-emergence action against ALOMY (ALOMY [24]): 90%
Post-emergence action against SETVI in % (SETVI [25]): 80%
Pre-emergence action against ALOMY (ALOMY [26]): 90%
Pre-emergence action against ABUTH (ABUTH [27]): 90%
Pre-emergence action against STEME (STEME [28]): 100%
Pre-emergence action against AVEFA in % (AVEFA [29]): 90%
Post-emergence action against AVEFA in % (AVEFA [30]): 80%
